In this experiment the target is Serine/threonine-protein phosphatase 2A catalytic subunit alpha isoform (Bos taurus) (UniProt P67774). The experiment can be described thus: dose-dependent inhibition of bovine PP2A – biochemical, bovine brain PP2A, 32P-phosphohistone, dose response, round 5, selectivity assay for PP5 inhibitor project, late-stage follow-up (AID 624447). Particulars: purified bovine PP2A, 32P-phosphohistone dephosphorylation, scintillation.

The values below come from PubChem BioAssay AID624447 (The Scripps Research Institute Molecular Screening Center, 2012).

Active and inactive are the calls of the source.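 Rule for the calls: active = PP2A blockers whose half-maximal inhibitory concentration IC50 falls below 50 µM; inactive = IC50 at or above 50 µM.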

Sequence of Serine/threonine-protein phosphatase 2A catalytic subunit alpha isoform (Bos taurus) (P67774 whole entry, looked up, canonical isoform): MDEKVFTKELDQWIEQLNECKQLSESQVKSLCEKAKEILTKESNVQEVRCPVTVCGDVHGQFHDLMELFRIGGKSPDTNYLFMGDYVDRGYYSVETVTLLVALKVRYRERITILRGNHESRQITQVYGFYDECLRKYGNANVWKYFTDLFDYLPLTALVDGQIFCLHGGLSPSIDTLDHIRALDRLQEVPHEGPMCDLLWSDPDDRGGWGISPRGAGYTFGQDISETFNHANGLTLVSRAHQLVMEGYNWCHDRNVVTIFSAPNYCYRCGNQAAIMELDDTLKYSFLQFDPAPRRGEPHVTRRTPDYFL

Turning to `CC(C)Oc1ccccc1-c1n[nH]nc1C(=O)O`, the IC50 result was “inactive”.
